{"source": "the NIST ThermoML archive (doi:10.1016/j.jct.2006.03.020)", "key": {"[1]": {"conditions": "298.15 K; 101.33 kPa; Liquid"}, "[2]": {"assay": "excess molar enthalpy (molar enthalpy of mixing); xn = mol fraction of the nth substance listed", "conditions": "298.15 K, 101 kPa, Liquid, Flow calorimetry"}}, "note": "± gives the expanded uncertainty stated by the source.", "data": [{"smiles": "COC(C)(C)C", "note": "[2-methoxy-2-methylpropane]", "values": [{"measurement": "mass density", "setting": "[1]", "value": "735.99 ± 0.74", "unit": "kg/m3"}]}, {"smiles": "CC1CCCO1", "note": "(stereo not drawn) [2-methyltetrahydrofuran]", "values": [{"measurement": "mass density", "setting": "[1]", "value": "848.1 ± 0.89", "unit": "kg/m3"}]}, {"smiles": "C=CCCCC", "note": "[hex-1-ene]", "values": [{"measurement": "mass density", "setting": "[1]", "value": "668.73 ± 1.4", "unit": "kg/m3"}]}, {"smiles": "C=CCCCC", "note": "[hex-1-ene] + C1CCOC1", "values": [{"measurement": "excess molar enthalpy", "setting": "[2]; x1 = 0.0501", "value": "0.0161 ± 0.000454", "unit": "kcal/mol"}, {"measurement": "excess molar enthalpy", "setting": "[2]; x1 = 0.097", "value": "0.0304 ± 0.000669", "unit": "kcal/mol"}, {"measurement": "excess molar enthalpy", "setting": "[2]; x1 = 0.1507", "value": "0.0446 ± 0.000884", "unit": "kcal/mol"}, {"measurement": "excess molar enthalpy", "setting": "[2]; x1 = 0.1994", "value": "0.055 ± 0.00105", "unit": "kcal/mol"}, {"measurement": "excess molar enthalpy", "setting": "[2]; x1 = 0.2501", "value": "0.0649 ± 0.00122", "unit": "kcal/mol"}, {"measurement": "excess molar enthalpy", "setting": "[2]; x1 = 0.3003", "value": "0.0729 ± 0.00136", "unit": "kcal/mol"}, {"measurement": "excess molar enthalpy", "setting": "[2]; x1 = 0.3499", "value": "0.0788 ± 0.00146", "unit": "kcal/mol"}, {"measurement": "excess molar enthalpy", "setting": "[2]; x1 = 0.3999", "value": "0.0834 ± 0.00153", "unit": "kcal/mol"}, {"measurement": "excess molar enthalpy", "setting": "[2]; x1 = 0.45", "value": "0.0859 ± 0.00158", "unit": "kcal/mol"}, {"measurement": "excess molar enthalpy", "setting": "[2]; x1 = 0.4977", "value": "0.0876 ± 0.0016", "unit": "kcal/mol"}, {"measurement": "excess molar enthalpy", "setting": "[2]; x1 = 0.5494", "value": "0.0869 ± 0.0016", "unit": "kcal/mol"}, {"measurement": "excess molar enthalpy", "setting": "[2]; x1 = 0.6006", "value": "0.0844 ± 0.00155", "unit": "kcal/mol"}, {"measurement": "excess molar enthalpy", "setting": "[2]; x1 = 0.649", "value": "0.0807 ± 0.00148", "unit": "kcal/mol"}, {"measurement": "excess molar enthalpy", "setting": "[2]; x1 = 0.6905", "value": "0.0761 ± 0.00141", "unit": "kcal/mol"}, {"measurement": "excess molar enthalpy", "setting": "[2]; x1 = 0.7499", "value": "0.0675 ± 0.00127", "unit": "kcal/mol"}, {"measurement": "excess molar enthalpy", "setting": "[2]; x1 = 0.7999", "value": "0.0587 ± 0.00112", "unit": "kcal/mol"}, {"measurement": "excess molar enthalpy", "setting": "[2]; x1 = 0.8501", "value": "0.0471 ± 0.000932", "unit": "kcal/mol"}, {"measurement": "excess molar enthalpy", "setting": "[2]; x1 = 0.8995", "value": "0.0335 ± 0.000717", "unit": "kcal/mol"}, {"measurement": "excess molar enthalpy", "setting": "[2]; x1 = 0.95", "value": "0.018 ± 0.000478", "unit": "kcal/mol"}]}, {"smiles": "C1CCOC1", "note": "[tetrahydrofuran]", "values": [{"measurement": "mass density", "setting": "[1]", "value": "882.09 ± 0.8", "unit": "kg/m3"}]}]}
